Assay [1] deals with T1, recombinant human Meningioma Expressed Antigen 5 (MGEA5), also referred to as O-GlcNAcase (OGA) (Homo sapiens, UniProt O60502).
T1 construct: Full length OGA enzyme was purchased at OnGene (cat #TP322411); purchased OnGene (so in the source)
T1 sequence (O60502 1-916): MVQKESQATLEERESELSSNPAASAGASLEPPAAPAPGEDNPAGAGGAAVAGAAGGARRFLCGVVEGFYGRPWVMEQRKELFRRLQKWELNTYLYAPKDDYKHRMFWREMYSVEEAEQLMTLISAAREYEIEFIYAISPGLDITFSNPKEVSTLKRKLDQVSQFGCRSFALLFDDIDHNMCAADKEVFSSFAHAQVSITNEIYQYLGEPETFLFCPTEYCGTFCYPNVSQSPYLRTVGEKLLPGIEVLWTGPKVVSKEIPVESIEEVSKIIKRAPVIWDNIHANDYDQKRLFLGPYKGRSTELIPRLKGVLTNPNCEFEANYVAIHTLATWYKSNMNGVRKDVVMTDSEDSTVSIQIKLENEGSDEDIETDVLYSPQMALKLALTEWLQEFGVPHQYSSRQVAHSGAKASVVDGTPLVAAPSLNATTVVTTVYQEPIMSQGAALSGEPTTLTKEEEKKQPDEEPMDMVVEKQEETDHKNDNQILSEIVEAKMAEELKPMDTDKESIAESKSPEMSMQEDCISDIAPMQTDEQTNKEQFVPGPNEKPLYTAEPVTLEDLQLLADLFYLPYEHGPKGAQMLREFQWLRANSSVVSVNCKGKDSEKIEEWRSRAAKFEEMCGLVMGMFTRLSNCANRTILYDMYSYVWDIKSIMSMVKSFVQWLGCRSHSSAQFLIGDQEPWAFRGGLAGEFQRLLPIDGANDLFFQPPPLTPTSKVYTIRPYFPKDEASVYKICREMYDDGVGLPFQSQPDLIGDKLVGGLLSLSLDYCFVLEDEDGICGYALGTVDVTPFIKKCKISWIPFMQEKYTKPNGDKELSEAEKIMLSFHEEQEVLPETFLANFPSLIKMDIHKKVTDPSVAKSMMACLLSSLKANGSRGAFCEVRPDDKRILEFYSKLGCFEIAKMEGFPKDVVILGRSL
The experiment in a line: OGA biochemical assay: inhibition of hydrolysis of fluorescein mono-ß-D-N-Acetyl-Glucosamine (FM-GlcNAc), fluorescence readout. To be noted: FM-GlcNAc substrate; for Emax: read-out: Enzymatic Emax (%); for IC50: read-out: Enzymatic hOGA, pIC50 (converted). The procedure, abridged:
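Full-length recombinant human OGA (2 nM) was pre-incubated with compound for 60 min, then reacted with 100 uM FM-GlcNAc for 6 h at room temperature in 200 mM citrate/phosphate pH 7.2 with 0.005% Tween-20. Reactions were stopped with pH 11.0 carbonate and fluorescein read at 485/538 nm. IC50 and Hill coefficient came from curve fitting.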

Assay [2] has as its system OGA in HEK293 cells inducible for P301L mutant human Tau (isoform 2N4R). The experiment in a line: OGA cellular assay: immunocytochemical detection of O-GlcNAcylated proteins (CTD110.6 antibody). The conditions noted are these: Homo sapiens, HEK293, 6 h, 6 hours incubation; for Emax: maximum = Thiamet G 200 uM; for EC50: read-out: Cellular hOGA, pEC50 (converted). Type of assay: cell-based. On the procedure: HEK293 cells inducible for P301L mutant human Tau (isoform 2N4R) were established at Janssen. Thiamet-G was used for both plate validation (high control) and as reference compound (reference EC50 assay validation). OGA inhibition is evaluated through the immunocytochemical (ICC) detection of O-GlcNAcylated proteins by the use of a monoclonal antibody (CTD110.6; Cell Signaling, #9875) detecting 0-GlcNAcylated residues as previously described (Dorfmueller et al. 2010 Chemistry & biology, 17:1250). Inhibition of OGA will result in an increase of O-GlcNAcylated protein levels resulting in an increased signal in the experiment. Cell nuclei are stained with Hoechst to give a cell culture quality control and a rough estimate of immediate compounds toxicity, if any. ICC pictures are imaged with a Perkin Elmer Opera Phenix plate microscope and quantified with the provided software Perkin Elmer Harmony 4.1.
Cells were propagated in DMEM high Glucose (Sigma, #D5796) following standard procedures. 2 days before the cell assay cells are split, counted and seeded in Poly-D-Lysine (PDL) coated 96-wells (Greiner, #655946) plate at a cell density of 12,000 cells per cm^2 (4,000 cells per well) in 100p of Assay Medium (Low Glucose medium is used to reduce basal levels of GlcNAcylation) (Park et al. 2014 The Journal of biological chemistry 289:13519). At the day of compound test medium from assay plates was removed and replenished with 90 µl of fresh Assay Medium. 10p of compounds at a 10 fold final concentration were added to the wells. Plates were centrifuged shortly before incubation in the cell incubator for 6 hours. DMSO concentration was set to 0.2%. Medium is discarded by applying vacuum. For staining of cells medium was removed and cells washed once with 100 μl D-PBS (Sigma, #D8537). From next step onwards unless other stated assay volume was always 50p and incubation was performed without agitation and at room temperature. Cells were fixed in 50 μl of a 4% paraformaldehyde (PFA, Alpha aesar, #043368) PBS solution for 15 minutes at room temperature. […] Before analysis samples were washed 2 times manually for 5 minutes in ICC base buffer.
Imaging is performed using Perkin Elmer Phenix Opera using a water 20× objective and recording 9 fields per well. Intensity readout at 488 nm is used as a measure of O-GlcNAcylation level of total proteins in wells. To assess potential toxicity of compounds nuclei were counted using the Hoechst staining. IC50-values are calculated using parametric non-linear regression model fitting. As a maximum inhibition Thiamet G at a 200 uM concentration is present on each plate. In addition, a concentration response of Thiamet G is calculated on each plate.

By Emax is commonly meant the size of the effect at its maximum, as opposed to the concentration needed.

Take `CCCCn1ccc2c(Nc3c(C)cncc3C)nccc21` [Compound 52]: in assay [1], the maximal effect (Emax) came out at 103% and the IC50 was 9.55 nM. Moreover, in assay [2], the maximal response (Emax) was 72% and the EC50 is 26.9 nM.

As to `CCCCn1ccc2c(Nc3c(C)cc4c(c3C)OCCO4)nccc21` [Compound 53], in assay [1], the Emax is 105% and the IC50 is 1.86 nM. Moreover, in assay [2], the maximal effect (Emax) worked out at 82% and the EC50 is 20.4 nM.

Regarding `CCCCn1ccc2c(Nc3c(C)cc(-c4cnn(C)c4)cc3C)nccc21` [Compound 54], in assay [1], the maximal response (Emax) stood at 104% and the IC50 was 2.04 nM. Moreover, in assay [2], the Emax was 82% and the EC50 is 20.9 nM.

For `CCCCn1ccc2c(Nc3c(C)ccc(C(=O)N4CCCC4)c3C)nccc21` [Compound 55], in assay [1], the maximal effect (Emax) came to 103% and the IC50 was 1.7 nM. In addition, in assay [2], the maximal response (Emax) was determined as 104% and the EC50 is 22.4 nM.

With `CCCCn1ccc2c(Nc3c(C)cc(C(=O)N4CCOCC4)cc3C)nccc21` [Compound 56], in assay [1], the maximal effect (Emax) turned out to be 101% and the IC50 was 2.69 nM. Moreover, in assay [2], the maximum response (Emax) turned out to be 107% and the EC50 is 5.13 nM.

As to `CCCCn1ccc2c(Nc3c(C)cc(C(=O)NC)cc3C)nccc21` [Compound 57], in assay [1], the Emax is 102% and the IC50 is 4.57 nM. In assay [2], the Emax was 107% and the EC50 was 11 nM.

Consider `CCCCn1ccc2c(Nc3c(C)ccc(C(=O)NC)c3C)nccc21` [Compound 58], for which, in assay [1], the Emax was found to be 101% and the IC50 was 3.09 nM. Besides, in assay [2], the maximum response (Emax) is 88% and the EC50 was 72.4 nM.

Regarding `CCCCn1ccc2c(Nc3c(C)ccc(C(=O)N(C)C)c3C)nccc21` [Compound 59], in assay [1], the Emax stood at 101% and the IC50 is 4.37 nM. Further, in assay [2], the Emax was found to be 88% and the EC50 is 100 nM.

As for `CC(C)CCn1ccc2c(Nc3c(Cl)cccc3Cl)nccc21` [Compound 60], in assay [1], the Emax turned out to be 102% and the IC50 is 3.63 nM. In assay [2], the maximal response (Emax) is 86% and the EC50 is 55 nM.

Regarding `CCCCn1ccc2c(Nc3c(C)cc(C(=O)N(C)C)cc3C)nccc21` [Compound 61], in assay [1], the maximal response (Emax) was determined as 103% and the IC50 was 3.72 nM. For the same molecule, in assay [2], the maximal effect (Emax) was 92% and the EC50 was 5.89 nM.

For `CCCCn1ccc2c(Nc3c(C)cc(NC(C)=O)cc3C)nccc21` [Compound 62], in assay [1], the maximum response (Emax) stood at 101% and the IC50 was 5.37 nM. Further, in assay [2], the maximum response (Emax) is 95% and the EC50 is 9.33 nM.

In the case of `CCCCn1ccc2c(Nc3c(C)cncc3C(C)C)nccc21` [Compound 63], in assay [1], the maximum response (Emax) was found to be 103% and the IC50 is 2.88 nM. Further, in assay [2], the Emax was determined as 93% and the EC50 is 12.3 nM.

`CCCCn1ccc2c(Nc3c(C)cc(C(=O)OC)cc3C)nccc21` [Compound 64]: in assay [1], the Emax came out at 102% and the IC50 is 3.98 nM. Moreover, in assay [2], the Emax came out at 80% and the EC50 was 24.5 nM.

Regarding `Cc1cncc(Cl)c1Nc1nccc2c1ccn2CCC1CC1` [Compound 65], in assay [1], the maximum response (Emax) came out at 104% and the IC50 was 5.37 nM. In assay [2], the Emax worked out at 69% and the EC50 was 120 nM.

In the case of `CCCCn1ccc2c(Nc3c(C)cc(C)c(Br)c3C)nccc21` [Compound 66], in assay [1], the Emax was determined as 103% and the IC50 is 3.8 nM. Besides, in assay [2], the maximal effect (Emax) worked out at 84% and the EC50 was 186 nM.

On to `CCCCn1ccc2c(Nc3c(C)cccc3C(C)C)nccc21` [Compound 67], for which, in assay [1], the Emax was determined as 104% and the IC50 was 0.891 nM. In assay [2], the maximal response (Emax) came out at 99% and the EC50 was 16.2 nM.

With `CCCCn1ccc2c(Nc3c(C)cc(C)cc3C)nccc21` [Compound 68], in assay [1], the Emax was found to be 104% and the IC50 is 3.8 nM. For the same molecule, in assay [2], the Emax was found to be 87% and the EC50 was 57.5 nM.

For the molecule `Clc1cccc(Cl)c1Nc1nccc2c1ccn2CC1CC1` [Compound 69], in assay [1], the maximal effect (Emax) turned out to be 102% and the IC50 was 3.39 nM. In assay [2], the Emax came to 82% and the EC50 is 55 nM.

As to `Clc1cccc(Cl)c1Nc1nccc2c1ccn2CCC1CC1` [Compound 70], in assay [1], the maximum response (Emax) came out at 103% and the IC50 is 1.7 nM. Moreover, in assay [2], the Emax turned out to be 82% and the EC50 was 37.2 nM.

Regarding `CCCCn1ccc2c(Nc3c(Cl)cccc3Cl)nccc21` [Compound 71], in assay [1], the maximal response (Emax) was 101% and the IC50 is 2.24 nM. Also, in assay [2], the Emax amounted to 78% and the EC50 is 47.9 nM.

Turning to `CCCCn1ccc2c(Nc3c(C)cccc3C)nccc21` [Compound 72], in assay [1], the Emax amounted to 100% and the IC50 was 5.62 nM. Besides, in assay [2], the Emax amounted to 78% and the EC50 is 53.7 nM.

Turning to `CCCCn1ccc2c(Nc3c(C)cc(F)cc3C)nccc21` [Compound 73], in assay [1], the Emax came to 101% and the IC50 is 2.69 nM. Moreover, in assay [2], the maximal effect (Emax) is 93% and the EC50 was 53.7 nM.

Regarding `CCCCn1ccc2c(Nc3c(Cl)cccc3Cl)ncc(F)c21` [Compound 74], in assay [1], the Emax was determined as 100% and the IC50 was 28.8 nM. In addition, in assay [2], the maximal effect (Emax) amounted to 40% and the EC50 is greater than 1000 nM.

Consider `CCCCn1ccc2c(Nc3c(C)cc(C(=O)N4CCCC4)cc3C)nccc21` [Compound 75], for which, in assay [1], the Emax came to 102% and the IC50 is 2.82 nM. Also, in assay [2], the Emax came to 85% and the EC50 is 6.03 nM.

Take `CCCCn1ccc2c(Nc3c(Cl)cc4c(c3C)OCCO4)nccc21` [Compound 76]: in assay [1], the maximal effect (Emax) turned out to be 101% and the IC50 was 2.95 nM. For the same molecule, in assay [2], the maximal effect (Emax) is 100% and the EC50 is 23.4 nM.

As to `CCCCn1ccc2c(Nc3c(C)cc4c(ncn4C)c3C)nccc21` [Compound 77], in assay [1], the Emax came out at 99% and the IC50 was 4.79 nM. For the same molecule, in assay [2], the Emax stood at 83% and the EC50 is 7.41 nM.

For the molecule `CCC(F)Cn1ccc2c(Nc3c(C)ccnc3C)nccc21` (stereo not shown) [Compound 78], in assay [1], the Emax is 103% and the IC50 is 3.24 nM. In assay [2], the Emax stood at 96% and the EC50 is 7.94 nM.

As for `CCCCn1ccc2c(Nc3c(C)ccnc3C)ncc(F)c21` [Compound 80], in assay [1], the Emax came out at 100% and the IC50 was 28.8 nM. Moreover, in assay [2], the Emax amounted to 73% and the EC50 was 372 nM.

These data come from US20210277003A1, “OGA INHIBITOR COMPOUNDS” (Janssen Pharmaceutica NV, priority 2018, published 2021).
